Measured values published in US20240425512A1, “NITROGEN-CONTAINING HETEROCYCLIC COMPOUND, PHARMACEUTICAL COMPOSITION THEREOF AND APPLICATION THEREOF” (280 Bio, Inc., priority 2023, published 2024).
Where two headings read alike, the source gives them in different places. One block for each compound: values may come before it.

Columns and labels:
[1] = tested on: LS513 colon cancer cell with KRAS G12D mutation; experiment: Proliferation inhibition on RAS cell lines measured by CTG, LS513; assay type: cell-based; conditions: LS513 cells, incubated for 6 days
Excerpt: NCI-H358 is a human non-small cell lung cancer cell line with KRAS G12C mutation; AGS is a gastric cancer cell line with KRAS G12D mutation; SW620 is a colon cancer cell with KRAS G12V mutation; NCI-H460 is a non-small cell lung cancer cell with KRAS Q61H mutation; MKN1 is a wild-type gastric cancer cell with KRAS-amplified; LS513 is a colon cancer cell with KRAS G12D mutation; LoVo is a colon cancer cell with KRAS G13D mutation; NCI-H441 is a lung cancer cell with KRAS G12V mutation, and Capan-2 is a pancreatic cancer cell with KRAS G12V mutation.
(§1) The proliferation inhibitory effect of the compounds on various mutations was evaluated by determining the proliferation inhibitory activity of the compounds on these cell lines.
(§2) The assay was conducted on either 384-well plates or 96-well plates. The procedures are as follows:
(§3) The cell suspensions were added to 384- or 96-well plates (384-well plate: 50 μL; 96-well plate: 100 μL) except for peripheral wells. The plates were placed in a carbon dioxide incubator overnight. NCI-H358, AGS, NCI-H460, MKN-1, LS513, LoVo, and NCI-H441 were placed in a 5%, 370 carbon dioxide incubator overnight, and SW620 was placed in a 0%, 370 carbon dioxide incubator overnight. The HPD300 micro-dosing instrument was used to add the corresponding concentration of compound to each well (9-10 concentration gradients of compound were obtained by 3-fold dilution). Cell plates were incubated in a carbon dioxide incubator for 5-6 days. NCI-H358, AGS, NCI-H460 and MKN-1 were incubated at 5%, 37° incubator and SW620 was incubated at 0%, 370 incubator. On the day of plate measurement, the 384- or 96-well plates were first equilibrated at room temperature for 10-30 min, then CellTiter Glo reagent (384-well plate: 25 μL; 96-well plate: 100 μL) was added to the 384- or 96-well plate, shaken for 10 min away from light, and incubated for 10 min. The plates were placed into Victor NIVO or ENVIDION reader plates, and XLFit was utilized to plot the pharmacodynamic inhibition curve and calculate the IC50 value. “IC50>10 μM” is denoted by “*”, “10 μM≥IC50≥1 μM” is denoted by “**”, and “1 μM≥IC50>100 nM” is denoted by “***”, “IC50<100 nM” is denoted by “****”

GP2D cells = experiment: Proliferation inhibition on RAS cell lines measured by CTG, GP2D; assay type: cell-based; conditions: CellTiter Glo
Procedure: as §1, §2, §3

[2] = Homo sapiens, LS-513, 144 h, Table 1, CellTiter Glo, read-out: IC50 (LS513^f)
[3] = Homo sapiens, LS-513, 144 h, Table 2, CellTiter Glo, read-out: IC50 (LS513^f)
[4] = 144 h, Table 2, incubated for 6 days, read-out: IC50 (GP2D^j)
[5] = 144 h, Table 3, incubated for 6 days, read-out: IC50 (GP2D^l)
[6] = Homo sapiens, LS-513, 144 h, Table 3, CellTiter Glo, read-out: IC50 (LS513^k)
[7] = Table 3, incubated for 6 days, read-out: IC50 (GP2D^l)

IC50 [1, 2]: < 100 nM
Compound: C#Cc1c(F)ccc2cc(O)cc(-c3ncc4c(N5CCCCCN5C(=O)OC(C)(C)C)nc(OC[C@@]56CCCN5C[C@H](F)C6)nc4c3F)c12 [Compound 12]

IC50 ([1]; Table 1, CellTiter Glo, read-out: IC50 (LS513^f)): < 100 nM
Compound: C#Cc1c(F)ccc2cc(O)cc(-c3ncc4c(N5CCCCCN5)nc(OCC5(CN(C)C)CC5)nc4c3F)c12 [Compound 13]

IC50 [1, 2]: 100 to 1000 nM
Compound: C#Cc1c(F)ccc2cc(O)cc(-c3ncc4c(N5CCCCCN5C(=O)OC(C)(C)C)nc(OCC5(CN(C)C)CC5)nc4c3F)c12 [Compound 14]

IC50 ([1]; Homo sapiens, LS-513, 144 h, Table 1, numeric value, read-out: IC50 (LS513^f)): 11.8 nM
IC50 [1, 2]: < 100 nM
Compound: C#Cc1c(F)ccc2cc(O)cc(-c3ncc4c(N5CCCCN5)nc(OC[C@@]56CCCN5C[C@H](F)C6)nc4c3F)c12 [Compound 16]

IC50 [1, 3]: 100 to 1000 nM
Compound: C#Cc1c(F)ccc2cc(O)cc(-c3ncc4c(N5CCCCCN5C(=O)OCC)nc(OC[C@@]56CCCN5C[C@H](F)C6)nc4c3F)c12 [Compound 20]

IC50 [1, 2]: < 100 nM
Compound: C#Cc1c(F)ccc2cc(O)cc(-c3ncc4c(N5CCCCCN5)nc(OCC56CCCN5C/C(=C/F)C6)nc4c3F)c12 (stereo not shown) [Compound 21]

IC50 [1, 2]: < 100 nM
Compound: C#Cc1c(F)ccc2cc(O)cc(-c3ncc4c(N5CCCCCN5)nc(OCC56CCCN5CC(=C(F)F)C6)nc4c3F)c12 (stereo not shown) [Compound 22]

IC50 [1, 3]: 1000 to 10000 nM
Compound: C#Cc1c(F)ccc2cc(O)cc(-c3ncc4c(N5CCNCCN5)nc(OC[C@@]56CCCN5C[C@H](F)C6)nc4c3F)c12 [Compound 40]

IC50 [1, 3]: 100 to 1000 nM
Compound: N#Cc1c(N)sc2c(F)ccc(-c3c(Cl)cc4c(N5CCCCCN5)nc(OC[C@@]56CCCN5C[C@H](F)C6)nc4c3F)c12 [Compound 42]

IC50 [1, 3]: < 100 nM
Compound: C=Cc1cc2c(N3CCCCCN3)nc(OC[C@@]34CCCN3C[C@H](F)C4)nc2c(F)c1-c1ccc(F)c2sc(N)c(C#N)c12 [Compound 43]

IC50 [1, 3]: < 100 nM
Compound: CCc1cc2c(N3CCCCCN3)nc(OC[C@@]34CCCN3C[C@H](F)C4)nc2c(F)c1-c1ccc(F)c2sc(N)c(C#N)c12 [Compound 44]

IC50 [1, 3]: < 100 nM
Compound: CCc1c(F)ccc2cc(O)cc(-c3ncc4c(N5CCCCCN5)nc(OCC5(CN6CCOCC6)CC5)nc4c3F)c12 [Compound 46]

IC50 [1, 3]: < 100 nM
Compound: C#Cc1c(F)ccc2cc(O)cc(-c3ncc4c(N5CCCCCN5)nc(OCC5(CN6CCCCC6)CC5)nc4c3F)c12 [Compound 47]

IC50 [1, 3]: < 100 nM
Compound: N#Cc1c(N)sc2c(F)ccc(-c3c(C(F)(F)F)cc4c(N5CCCCCN5)nc(OC[C@@]56CCCN5C[C@H](F)C6)nc4c3F)c12 [Compound 48]

IC50 [1, 3]: < 100 nM
Compound: CCc1c(F)ccc2cc(O)cc(N3CCc4c(nc(OC[C@@]56CCCN5C[C@H](F)C6)nc4N4CCCCCN4)C3)c12 [Compound 51]

IC50 [1, 3]: 100 to 1000 nM
Compound: C#Cc1c(F)ccc2cc(O)cc(-c3ncc4c(N5CCCCCN5)nc(OCC5(CN6CCN(C)CC6)CC5)nc4c3F)c12 [Compound 52]

IC50 [1, 3]: 100 to 1000 nM
Compound: C#Cc1c(F)ccc2cc(O)cc(-c3ncc4c(N5CCCCCN5)nc(OCC5(CN6CCCC6)CC5)nc4c3F)c12 [Compound 53]

Compound: C#Cc1c(F)ccc2cc(O)cc(-c3c(C(F)(F)F)cc4c(N5CCCCCN5)nc(OC[C@@]56CCCN5C[C@H](F)C6)nc4c3F)c12 [Compound 54]
IC50 (GP2D cells; [4]): 100 to 1000 nM

IC50 [1, 3]: < 100 nM
Compound: C#Cc1c(F)ccc2cc(O)cc(-c3ncc4c(N5CCCC(F)(F)CN5)nc(OC[C@@]56CCCN5C[C@H](F)C6)nc4c3F)c12 [Compound 56]

IC50 [1, 3]: < 100 nM
Compound: C#Cc1c(F)ccc2cc(O)cc(-c3ncc4c(N5CCCCCN5)nc(OCC56CCCN5C(COc5cc(C(F)(F)F)cnn5)CC6)nc4c3F)c12 (stereo not shown) [Compound 58]
IC50 (GP2D cells; [4]): < 100 nM

IC50 [1, 3]: < 100 nM
Compound: C#Cc1c(F)ccc2cc(O)cc(-c3ncc4c(N5CCCCCN5)nc(OCC56CCCN5C(COc5cc(C(F)(F)F)ncn5)CC6)nc4c3F)c12 (stereo not shown) [Compound 60]
IC50 (GP2D cells; [4]): < 100 nM

IC50 [1, 3]: < 100 nM
Compound: C#Cc1c(F)ccc2c(F)c(O)cc(-c3ncc4c(N5CCCCCN5)nc(OC[C@@]56CCCN5C[C@H](F)C6)nc4c3F)c12 [Compound 64]
IC50 (GP2D cells; [4]): < 100 nM

Compound: Oc1cc(-c2ncc3c(N4CCCCCN4)nc(OC[C@@]45CCCN4C[C@H](F)C5)nc3c2F)c2c(F)c(F)ccc2c1 [Compound 66]
IC50 (GP2D cells; [4]): < 100 nM

IC50 [1, 3]: < 100 nM
Compound: C#Cc1c(F)ccc2cc(O)cc(-c3ncc4c(N5CCCCCN5C(=O)C(F)(F)F)nc(OC[C@@]56CCCN5C[C@H](F)C6)nc4c3F)c12 [Compound 68]
IC50 (GP2D cells; [4]): < 100 nM

Compound: C#Cc1c(F)ccc2cc(OC(=O)NCCCCCCCC)cc(-c3ncc4c(N5CCCCCN5)nc(OC[C@@]56CCCN5C[C@H](F)C6)nc4c3F)c12 [Compound 69]
IC50 (GP2D cells; [4]): < 100 nM
IC50 [1, 3]: < 100 nM

IC50 [1, 3]: < 100 nM
Compound: C#Cc1c(F)ccc2cc(O)cc(-c3ncc4c(N5CCCCCN5)nc(OC[C@@H]5CCCN5C)nc4c3F)c12 [Compound 72]
IC50 (GP2D cells; [4]): < 100 nM

Compound: C#Cc1c(F)ccc2cc(OC(=O)N3CCC(N4CCCCC4)CC3)cc(-c3ncc4c(N5CCCCCN5)nc(OC[C@@]56CCCN5C[C@H](F)C6)nc4c3F)c12 [Compound 73]
IC50 (GP2D cells; [5]): 100 to 1000 nM
IC50 [1, 6]: 100 to 1000 nM

Compound: C#Cc1c(F)ccc2cc(OC(=O)N3CCC[C@H]3COC)cc(-c3ncc4c(N5CCCCCN5)nc(OC[C@@]56CCCN5C[C@H](F)C6)nc4c3F)c12 [Compound 74]
IC50 (GP2D cells; [5]): < 100 nM
IC50 [1, 6]: < 100 nM

Compound: C#Cc1c(F)ccc2cc(O)cc(-c3ncc4c(N5CC=CCN5)nc(OC[C@@]56CCCN5C[C@H](F)C6)nc4c3F)c12 [Compound 76]
IC50 (GP2D cells; [4]): 100 to 1000 nM

IC50 [1, 3]: < 100 nM
Compound: Nc1cc(Cl)c(C(F)(F)F)c(-c2ncc3c(N4CCCCCN4)nc(OC[C@@]45CCCN4C[C@H](F)C5)nc3c2F)c1 [Compound 81]
IC50 (GP2D cells; [4]): 100 to 1000 nM

IC50 [1, 3]: < 100 nM
Compound: [2H]C([2H])(Oc1nc(N2CCCCCN2)c2cnc(-c3cc(O)cc4ccc(F)c(C#C)c34)c(F)c2n1)[C@@]12CCCN1C[C@H](F)C2 [Compound 82]
IC50 (GP2D cells; [4]): < 100 nM

IC50 [1, 3]: 100 to 1000 nM
Compound: C#Cc1c(F)ccc2cc(O)cc(-c3ncc4c(N5CCCCCN5)nc(OC[C@]56CCCN5[C@H](c5cc(F)c(F)c(F)c5)CC6)nc4c3F)c12 [Compound 85]
IC50 (GP2D cells; [4]): 100 to 1000 nM

Compound: C#Cc1c(F)ccc2cc(OC(=O)N(C)C)cc(-c3ncc4c(N5CCCCCN5)nc(OC[C@@]56CCCN5C[C@H](F)C6)nc4c3F)c12 [Compound 89]
IC50 (GP2D cells; [5]): 100 to 1000 nM

Compound: C#Cc1c(F)ccc2cc(OC(=O)N3CCOCC3)cc(-c3ncc4c(N5CCCCCN5)nc(OC[C@@]56CCCN5C[C@H](F)C6)nc4c3F)c12 [Compound 90]
IC50 (GP2D cells; [5]): < 100 nM
IC50 [1, 6]: < 100 nM

Compound: C#Cc1c(F)ccc2cc(OC(=O)NCCOCCOC)cc(-c3ncc4c(N5CCCCCN5)nc(OC[C@@]56CCCN5C[C@H](F)C6)nc4c3F)c12 [Compound 92]
IC50 (GP2D cells; [5]): < 100 nM
IC50 [1, 6]: < 100 nM

Compound: C#Cc1c(F)ccc2cc(OC(=O)NCCOC)cc(-c3ncc4c(N5CCCCCN5)nc(OC[C@@]56CCCN5C[C@H](F)C6)nc4c3F)c12 [Compound 93]
IC50 (GP2D cells; [5]): < 100 nM
IC50 [1, 6]: < 100 nM

Compound: C#Cc1c(F)ccc2cc(OC(=O)NCCCC)cc(-c3ncc4c(N5CCCCCN5)nc(OC[C@@]56CCCN5C[C@H](F)C6)nc4c3F)c12 [Compound 94]
IC50 (GP2D cells; [5]): < 100 nM
IC50 [1, 6]: < 100 nM

Compound: C#Cc1c(F)ccc2cc(O)cc(-c3ncc4c(N5CCCCCN5)nc(OCC5(CN6CCC(OCC(=O)N[C@H](C(=O)N7C[C@H](O)C[C@H]7C(=O)N[C@@H](C)c7ccc(-c8scnc8C)cc7)C(C)(C)C)CC6)CC5)nc4c3F)c12 [Compound 108]
IC50 (GP2D cells; [7]): < 100 nM

Compound: C#Cc1c(F)ccc2cc(OC(=O)N3CCCC3)cc(-c3ncc4c(N5CCCCCN5)nc(OC[C@@]56CCCN5C[C@H](F)C6)nc4c3F)c12 [Compound 111]
IC50 (GP2D cells; [5]): < 100 nM

Compound: C#Cc1c(F)ccc2cc(O)cc(-c3ncc4c(N5CCCCCN5)nc(OCC5(CN6CCN(c7cc(F)c(F)c(F)c7)CC6)CC5)nc4c3F)c12 [Compound 130]
IC50 (GP2D cells; [7]): 100 to 1000 nM

Compound: C#Cc1c(F)ccc2cc(O)cc(-c3ncc4c(N5CCCCCN5)nc(OCC5CN(c6nccn6C)C5)nc4c3F)c12 [Compound 138]
IC50 (GP2D cells; [5]): 100 to 1000 nM

Compound: C#Cc1c(F)ccc2cc(O)cc(-c3ncc4c(N5CCCCCN5)nc(OCC5(C)C(C)CCN5CC=C)nc4c3F)c12 (stereo not shown) [Compound 148]
IC50 (GP2D cells; [5]): < 100 nM
